We go through 16 compounds from patent US20130281396A1, “TREATMENT OF DISEASES BY EPIGENETIC REGULATION” (RVX Therapeutics Inc., priority 2012, published 2013).

SMILES strings stand for the structures. ≈ marks a conversion by molar mass, not a printed value.

System in the first series: not given
Experiment: not given
Conditions: not given
Consider `O=c1cc(-c2ccc(O)cc2)oc2cnccc12` [Example 3, 2-(4-Hydroxyphenyl)-pyrano[2,3-c]pyridin-4-one], for which the melting point fell in the range of 294 to 296 °C.

`O=c1cc(-c2ccc(O)c(F)c2)oc2ncccc12` [Example 4, 2-(3-Fluoro-4-hydroxyphenyl)pyrano[2,3-b]pyridine-4-one] yielded a melting point of 267 to 268 °C.

Regarding `Cc1cc(-c2cc(=O)c3cccnc3o2)ccc1O` [Example 5, 2-(4-Hydroxy-3-methylphenyl)-4H-pyrano[2,3-b]pyridine-4-one], the melting point was in the range of 300 to 302 °C.

`O=c1cc(-c2ccc(O)cc2)oc2ccncc12` [Example 6, 2-(4-Hydroxyphenyl)-4H-pyrano[3,2-c]pyridin-4-one] returned a melting point of 306 to 308 °C.

Compound `O=c1cc(-c2ccc(O)c(Cl)c2)oc2ncccc12` [Example 7, 2-(3-Chloro-4-hydroxyphenyl)-4H-pyrano[2,3-b]pyridine-4-one] displayed a melting point of 259 to 262 °C.

Compound `O=c1cc(-c2ccc(O)c(Br)c2)oc2ncccc12` [Example 8, 2-(3-Bromo-4-hydroxyphenyl)-4H-pyrano[2,3-b]pyridin-4-one] displayed a melting point of 267 to 272 °C.

The compound `COc1cc(-c2cc(=O)c3cccnc3o2)ccc1O` [Example 9, 2-(4-Hydroxy-3-methoxyphenyl)-4H-pyrano[2,3-b]pyridine-4-one] registered a melting point of 253 to 255 °C.

`COc1ccc(-c2cc(=O)c3cccnc3o2)cc1` [Example 10, 2-(4-Methoxyphenyl)-4H-pyrano[2,3-b]pyridine-4-one] showed a melting point of 269 to 270 °C.

The compound `O=c1cc(-c2ccc(OCCO)cc2)oc2ncccc12` [Example 11, 2-(4-(2-Hydroxyethoxy)phenyl)-4H-pyrano[2,3-b]pyridine-4-one] gave a melting point of 157 to 159 °C.

Compound `CC(=O)Oc1ccc(-c2cc(=O)c3cccnc3o2)cc1` [Example 12, 4-(4-Oxo-4H-pyrano[2,3-b]pyridine-2-yl)phenyl acetate] gave a melting point of 167 to 169 °C.

Consider `O=c1cc(-c2ccc(O)c(CO)c2)oc2ncccc12` [Example 13, 2-(4-Hydroxy-3-(hydroxymethyl)phenyl)-4H-pyrano[2,3′-b]pyridine-4-one], for which the melting point lay within 226 to 227 °C.

The target in the next series is T1, Brd4 bromodomain 1 (Homo sapiens, UniProt O60885).
T1 construct: Illustrative results with the first bromodomain of Brd4; made in house; host or cells: E. coli BL21(DE3)
Briefly: Inhibition of tetra-acetylated histone H4 binding to BET bromodomain (TR-FRET). The following applies: His-tagged first bromodomain of Brd4 (200 nM), biotinylated tetra-acetylated histone H4 peptide, 2 hours at room temperature. How it is done:
Proteins were cloned and overexpressed with a N-terminal 6×His tag, then purified by nickel affinity followed by size exclusion chromatography. Briefly, E. coli BL21(DE3) cells were transformed with a recombinant expression vector encoding N-terminally Nickel affinity tagged bromodomains from Brd2, Brd3, Brd4. Cell cultures were incubated at 37° C. with shaking to the appropriate density and induced overnight with IPTG. The supernatant of lysed cells was loaded onto Ni-IDA column for purification. Eluted protein was pooled, concentrated and further purified by size exclusion chromatography. Fractions representing monomeric protein were pooled, concentrated, aliquoted, and frozen at −80° C. for use in subsequent experiments.
Binding of tetra-acetylated histone H4 and BET bromodomains was confirmed by a Time Resolved Fluorescence Resonance Energy Transfer (TR-FRET) method. N-terminally His-tagged bromodomains (200 nM) and biotinylated tetra-acetylated histone H4 peptide (25-50 nM, Millipore) were incubated in the presence of Europium Cryptate-labeled streptavidin (Cisbio Cat. #610SAKLB) and XL665-labeled monoclonal anti-His antibody (Cisbio Cat. #61HISXLB) in a white 96 well microtiter plate (Greiner). For inhibition assays, serially diluted test compound was added to these reactions in a 0.2% final concentration of DMSO. Final buffer concentrations were 30 mM HEPES pH 7.4, 30 mM NaCl, 0.3 mM CHAPS, 20 mM phosphate pH 7.0, 320 mM KF, 0.08% BSA). After 2 hours incubation at room temperature, the fluorescence by FRET was measured at 665 and 620 nm by a SynergyH4 plate reader (Biotek). Illustrative results with the first bromodomain of Brd4. The binding inhibitory activity was shown by a decrease in 665 nm fluorescence relative to 620 nm. IC50 values were determined from a dose response curve.
On the technique in general: In TR-FRET formats the signal depends on donor and acceptor labels being close together.
For `O=c1cc(-c2ccc(O)cc2)oc2ncccc12` [Example 1, 2-(4-Hydroxy-phenyl)-pyrano[2,3-b]pyridin-4-one], the “FRET activity (<50 uM)” value is reported as “Active”.

`O=c1cc(-c2ccc(O)cc2)oc2cccnc12` [Example 2, 2-(4-Hydroxy-phenyl)-pyrano[3,2-b]pyridin-4-one]: the “FRET activity (<50 uM)” value is “Active”.

Regarding `O=c1cc(-c2ccc(O)c(Br)c2)oc2ncccc12` [Example 8, 2-(3-Bromo-4-hydroxyphenyl)-4H-pyrano[2,3-b]pyridin-4-one], the “FRET activity (<50 uM)” value is reported as “Active”.

System in a further series: not given
Experiment: not given
The following applies: value from S. P. Ng et al. (2005), footnote *; cited from earlier work.
`O=c1cc(-c2ccc(O)cc2)oc2cc(O)cc(O)c12` [5,7-dihydroxy-2-(4-hydroxyphenyl)-4H-chomen-4-one]: the “Solubility (PBS)” value is given as 3.37* μM.

Staying with this series, now noted: value from S. P. Ng et al. (2005), footnote *; listed as apigenin; cited from earlier work.
Regarding `O=c1cc(-c2ccc(O)cc2)oc2cc(O)cc(O)c12` [5,7-dihydroxy-2-(4-hydroxyphenyl)-4H-chomen-4-one], the “Solubility (PBS)” value is 3.27 µM (≈ 0.884 µg/mL).

Another series has as its system Caco-2 cells. The experiment in a line: Caco-2 permeability (in vitro Caco-2 intestinal transport model). Type of series: in vitro ADME.
Conditions: not given
The text has this:
The Caco-2 cell drug transport model is widely used for screening compounds in drug discovery to assess intestinal transport and predict absorption rates.
For orientation: Passage across Caco-2 layers is used to estimate intestinal permeability.
For the compound `O=c1cc(-c2ccc(O)cc2)oc2cc(O)cc(O)c12` [5,7-dihydroxy-2-(4-hydroxyphenyl)-4H-chomen-4-one], the “Apparent permeability (Papp)” value amounted to 1.5 ×10⁻⁶ cm/s.

With `CCCO` [Propanol], the “% Transported Paap” value was found to be 10.1 ×10⁻⁶ cm/s.

As for `Oc1ccc(C=Cc2cc(O)cc(O)c2)cc1` [Resveratrol], the “Apparent permeability (Papp)” value is 3.34 ×10⁻⁶ cm/s.

The melting point is the temperature, or range, at which the solid turns liquid.
